Biological target: T1, GLUT1 (Homo sapiens, UniProt P11166)
T1 sequence (P11166 1-492): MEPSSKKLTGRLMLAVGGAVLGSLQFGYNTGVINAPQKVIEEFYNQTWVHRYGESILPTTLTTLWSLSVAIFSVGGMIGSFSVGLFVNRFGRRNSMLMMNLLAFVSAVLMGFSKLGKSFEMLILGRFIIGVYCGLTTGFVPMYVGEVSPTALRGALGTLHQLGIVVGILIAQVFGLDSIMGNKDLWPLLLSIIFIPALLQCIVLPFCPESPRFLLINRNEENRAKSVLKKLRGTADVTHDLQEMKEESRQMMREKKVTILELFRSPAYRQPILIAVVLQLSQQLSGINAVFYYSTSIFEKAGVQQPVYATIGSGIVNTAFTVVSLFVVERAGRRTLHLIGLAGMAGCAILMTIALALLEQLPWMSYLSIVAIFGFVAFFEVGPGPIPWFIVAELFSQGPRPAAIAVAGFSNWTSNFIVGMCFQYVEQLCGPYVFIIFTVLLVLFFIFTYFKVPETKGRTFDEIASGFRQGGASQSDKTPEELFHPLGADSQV
Experiment: Indirect measurement of GLUT1 activity by quantification of intracellular ATP levels (glucose induced ATP increase)
Format: cell-based
Set-up: endogenous in cells; host or cells: DLD1 or CHO-K1
Conditions: read-out: IC50 regarding glucose induced ATP increase (GLUT1 inhibition)
Summary of the method: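 DLD1 or CHO-K1 cells were starved overnight in glucose-free medium with 1% FCS, then combined with an oxidative phosphorylation inhibitor. GLUT1 activity was read as glucose-induced ATP increase, GLUT2 as fructose-induced. Intracellular ATP was quantified by CellTiter-Glo luminescence.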

IC50 [nM]	Structure (SMILES)
1	Cc1nn(Cc2ccc(C#N)nc2)c(C)c1NC(=O)c1cc(C(N)=O)nc2ccc(Br)cc12 [Example 293, 6-bromo-N^4-{1-[(6-cyanopyridin-3-yl)methyl]-3,5-dimethyl-1H-pyrazol-4-yl}quinoline-2,4-dicarboxamide]
6.6	Cc1nn(CCOc2ccc(C#N)cc2)c(C)c1NC(=O)c1cc(C(N)=O)nc2cc(F)c(Cl)cc12 [Example 294, 6-chloro-N^4-{1-[2-(4-cyanophenoxy)ethyl]-3,5-dimethyl-1H-pyrazol-4-yl}-7-fluoroquinoline-2,4-dicarboxamide]
1020	Cc1nn(CCOc2ccc(C#N)cc2)c(C)c1NC(=O)c1cc(C(N)=O)nc2ccccc12 [Example 295, N^4-{1-[2-(4-cyanophenoxy)ethyl]-3,5-dimethyl-1H-pyrazol-4-yl}quinoline-2,4-dicarboxamide]
0.6	Cc1nn(Cc2ccc(C#N)cc2F)c(C)c1NC(=O)c1cc(C(N)=O)nc2cc(F)c(Cl)cc12 [Example 296, 6-chloro-N^4-[1-(4-cyano-2-fluorobenzyl)-3,5-dimethyl-1H-pyrazol-4-yl]-7-fluoroquinoline-2,4-dicarboxamide]
0.8	Cc1nn(Cc2ccc(C#N)cc2F)c(C)c1NC(=O)c1cc(C(N)=O)nc2ccccc12 [Example 297, N^4-[1-(4-cyano-2-fluorobenzyl)-3,5-dimethyl-1H-pyrazol-4-yl]quinoline-2,4-dicarboxamide]
1	Cc1nn(Cc2ccc(C#N)cc2F)c(C)c1NC(=O)c1cc(C(N)=O)nc2cc(F)c(F)cc12 [Example 298, N^4-[1-(4-cyano-2-fluorobenzyl)-3,5-dimethyl-1H-pyrazol-4-yl]-6,7-difluoroquinoline-2,4-dicarboxamide]
6.8	Cc1nn(Cc2ccc(C#N)cc2F)c(C)c1NC(=O)c1cc(C(N)=O)nc2ccc(Br)cc12 [Example 299, 6-bromo-N^4-[1-(4-cyano-2-fluorobenzyl)-3,5-dimethyl-1H-pyrazol-4-yl]quinoline-2,4-dicarboxamide]
0.5	Cc1nn(Cc2ccc(C#N)cc2F)c(C)c1NC(=O)c1cc(C(N)=O)nc2cc(F)ccc12 [Example 300, N^4-[1-(4-cyano-2-fluorobenzyl)-3,5-dimethyl-1H-pyrazol-4-yl]-7-fluoroquinoline-2,4-dicarboxamide]
0.5	Cc1nn(Cc2ccc(C#N)cc2F)c(C)c1NC(=O)c1cc(C(N)=O)nc2cccc(F)c12 [Example 301, N^4-[1-(4-cyano-2-fluorobenzyl)-3,5-dimethyl-1H-pyrazol-4-yl]-5-fluoroquinoline-2,4-dicarboxamide]
1.1	Cc1c(NC(=O)c2cc(C(N)=O)nc3ccccc23)c(C(F)(F)F)nn1Cc1ccc(C#N)cc1F [Example 302, N^4-[1-(4-cyano-2-fluorobenzyl)-5-methyl-3-(trifluoromethyl)-1H-pyrazol-4-yl]quinoline-2,4-dicarboxamide]
1.8	Cc1c(NC(=O)c2cc(C(N)=O)nc3cc(F)c(Cl)cc23)c(C(F)(F)F)nn1Cc1ccc(C#N)cc1F [Example 303, 6-chloro-N^4-[1-(4-cyano-2-fluorobenzyl)-5-methyl-3-(trifluoromethyl)-1H-pyrazol-4-yl]-7-fluoroquinoline-2,4-dicarboxamide]
3.6	Cc1c(NC(=O)c2cc(C(N)=O)nc3cc(F)c(F)cc23)c(C(F)(F)F)nn1Cc1ccc(C#N)cc1F [Example 304, N^4-[1-(4-cyano-2-fluorobenzyl)-5-methyl-3-(trifluoromethyl)-1H-pyrazol-4-yl]-6,7-difluoroquinoline-2,4-dicarboxamide]
1.4	Cc1c(NC(=O)c2cc(C(N)=O)nc3ccc(Br)cc23)c(C(F)(F)F)nn1Cc1ccc(C#N)cc1F [Example 305, 6-bromo-N^4-[1-(4-cyano-2-fluorobenzyl)-5-methyl-3-(trifluoromethyl)-1H-pyrazol-4-yl]quinoline-2,4-dicarboxamide]
4.7	Cc1c(NC(=O)c2cc(C(N)=O)nc3cccc(F)c23)c(C(F)(F)F)nn1Cc1ccc(C#N)cc1F [Example 306, N^4-[1-(4-cyano-2-fluorobenzyl)-5-methyl-3-(trifluoromethyl)-1H-pyrazol-4-yl]-5-fluoroquinoline-2,4-dicarboxamide]
5.1	Cc1c(NC(=O)c2cc(C(N)=O)nc3cc(F)c(Cl)cc23)c(C#N)nn1Cc1ccc(F)cc1 [Example 307, 6-chloro-N^4-[3-cyano-1-(4-fluorobenzyl)-5-methyl-1H-pyrazol-4-yl]-7-fluoroquinoline-2,4-dicarboxamide]
2.7	Cc1c(NC(=O)c2cc(C(N)=O)nc3ccccc23)c(C#N)nn1Cc1ccc(F)cc1 [Example 308, N^4-[3-cyano-1-(4-fluorobenzyl)-5-methyl-1H-pyrazol-4-yl]quinoline-2,4-dicarboxamide]

IC50 [nM]	Structure (SMILES)
363	CCc1nn(Cc2ccc(C#N)cc2)c(CC)c1NC(=O)c1cc(C(F)(F)F)nc2ccc(Br)cc12 [Example 309, 6-bromo-N-[1-(4-cyanobenzyl)-3,5-diethyl-1H-pyrazol-4-yl]-2-(trifluoromethyl)quinoline-4-carboxamide]
47.2	CCc1nn(Cc2ccc(C#N)cc2)c(CC)c1NC(=O)c1cc(C(N)=O)nc2ccccc12 [Example 310, N^4-[1-(4-cyanobenzyl)-3,5-diethyl-1H-pyrazol-4-yl]quinoline-2,4-dicarboxamide]
6	CCc1nn(Cc2ccc(C#N)cc2)c(CC)c1NC(=O)c1cc(C(N)=O)nc2cc(F)c(Cl)cc12 [Example 311, 6-chloro-N^4-[1-(4-cyanobenzyl)-3,5-diethyl-1H-pyrazol-4-yl]-7-fluoroquinoline-2,4-dicarboxamide]
35.5	CCc1nn(Cc2ccc(C#N)cc2)c(CC)c1NC(=O)c1cc(C(N)=O)nc2cc(F)ccc12 [Example 312, N^4-[1-(4-cyanobenzyl)-3,5-diethyl-1H-pyrazol-4-yl]-7-fluoroquinoline-2,4-dicarboxamide]
185	CCc1nn(Cc2ccc(C#N)cc2)c(CC)c1NC(=O)c1cc(C(N)=O)nc2cc(Cl)ccc12 [Example 313, 7-chloro-N^4-[1-(4-cyanobenzyl)-3,5-diethyl-1H-pyrazol-4-yl]quinoline-2,4-dicarboxamide]
1.6	CCc1c(NC(=O)c2cc(C(N)=O)nc3cc(F)c(Cl)cc23)c(C(F)(F)F)nn1Cc1ccc(C#N)cc1 [Example 314, 6-chloro-N^4-[1-(4-cyanobenzyl)-5-ethyl-3-(trifluoromethyl)-1H-pyrazol-4-yl]-7-fluoroquinoline-2,4-dicarboxamide]
16	CCc1c(NC(=O)c2cc(C(N)=O)nc3cc(F)ccc23)c(C(F)(F)F)nn1Cc1ccc(C#N)cc1 [Example 315, N^4-[1-(4-cyanobenzyl)-5-ethyl-3-(trifluoromethyl)-1H-pyrazol-4-yl]-7-fluoroquinoline-2,4-dicarboxamide]
19.8	CCc1c(NC(=O)c2cc(C(N)=O)nc3cccc(F)c23)c(C(F)(F)F)nn1Cc1ccc(C#N)cc1 [Example 316, N^4-[1-(4-cyanobenzyl)-5-ethyl-3-(trifluoromethyl)-1H-pyrazol-4-yl]-5-fluoroquinoline-2,4-dicarboxamide]
1050	CC(C)c1c(NC(=O)c2cc(C(N)=O)nc3ccccc23)c(C(F)(F)F)nn1Cc1ccc(C#N)cc1 [Example 317, N^4-[1-(4-cyanobenzyl)-5-isopropyl-3-(trifluoromethyl)-1H-pyrazol-4-yl]quinoline-2,4-dicarboxamide]
352	CC(C)c1c(NC(=O)c2cc(C(N)=O)nc3cc(F)ccc23)c(C(F)(F)F)nn1Cc1ccc(C#N)cc1 [Example 318, N^4-[1-(4-cyanobenzyl)-5-isopropyl-3-(trifluoromethyl)-1H-pyrazol-4-yl]-7-fluoroquinoline-2,4-dicarboxamide]
1	CC(C)c1nn(Cc2ccc(C#N)cc2)c(C(F)(F)F)c1NC(=O)c1cc(C(N)=O)nc2ccccc12 [Example 319, N^4-[1-(4-cyanobenzyl)-3-isopropyl-5-(trifluoromethyl)-1H-pyrazol-4-yl]quinoline-2,4-dicarboxamide]
8	CC(C)c1nn(Cc2ccc(C#N)cc2)c(C(F)(F)F)c1NC(=O)c1cc(C(N)=O)nc2cc(F)ccc12 [Example 320, N^4-[1-(4-cyanobenzyl)-3-isopropyl-5-(trifluoromethyl)-1H-pyrazol-4-yl]-7-fluoroquinoline-2,4-dicarboxamide]
7.2	Cc1c(NC(=O)c2cc(C(N)=O)nc3cc(F)ccc23)c(C(C)C)nn1Cc1ccc(C#N)cc1 [Example 321, N^4-[1-(4-cyanobenzyl)-3-isopropyl-5-methyl-1H-pyrazol-4-yl]-7-fluoroquinoline-2,4-dicarboxamide]
1.9	Cc1c(NC(=O)c2cc(C(N)=O)nc3ccccc23)c(C(C)C)nn1Cc1ccc(C#N)cc1 [Example 322, N^4-[1-(4-cyanobenzyl)-3-isopropyl-5-methyl-1H-pyrazol-4-yl]quinoline-2,4-dicarboxamide]
39.4	Cc1nn(Cc2ccc(C#N)cc2)c(C(C)C)c1NC(=O)c1cc(C(N)=O)nc2ccccc12 [Example 323, N^4-[1-(4-cyanobenzyl)-5-isopropyl-3-methyl-1H-pyrazol-4-yl]quinoline-2,4-dicarboxamide]
